In ChEMBL document CHEMBL1124736, “Novel quinuclidine-based ligands for the muscarinic cholinergic receptor” (J Med Chem, 1990):

Key:
[1] = molecular target: T1, Muscarinic acetylcholine receptor (Rattus norvegicus) (UniProt P08482+P08483+P08485+P08911+P10980)
Description: In vitro for its ability to displace [3H]NMS from muscarinic acetylcholine receptor in rat cortical homogenates

[2] = molecular target: T1, Muscarinic acetylcholine receptor (Rattus norvegicus); remark: listed apart in the source
Description: In vitro displacement of [3H]OXO-M from muscarinic acetylcholine receptor in rat cortical homogenates

[3] = Log of the ratio of Kapp([3H]-NMS)/Kapp([3H]-OXO-M) was determined
[4] = molecular target: T1, Muscarinic acetylcholine receptor (Rattus norvegicus); assay: Compound was tested in vitro for its ability to displace [3H]OXO-M from Muscarinic acetylcholine receptor in rat cortical homogenates

SMILES	K app [1] [µM]	K app [2] [µM]	Log ratio [3]	K app [4] [µM]
COC(=O)C1CN2CCC1CC2 (configuration not stated)	8.6	0.023	–	–
Cc1ccc(C2CN3CCC2CC3)o1 (configuration not stated)	0.25	0.013	1.28	–
Cc1noc(C2=CN3CCC2CC3)n1	15	0.4	–	–
Cc1nnc(C2CN3CCC2CC3)o1 (configuration not stated)	7.5	0.06	2.11	–
CNc1noc(C2CN3CCC2CC3)n1 (configuration not stated)	2	0.053	–	–
Nc1noc(C2CN3CCC2CC3)n1 (configuration not stated)	–	0.0005	3.08	–
c1coc(C2CN3CCC2CC3)n1 (configuration not stated)	6.7	0.038	–	–
N#Cc1noc(C2CN3CCC2CC3)n1 (configuration not stated)	2.6	0.043	–	–
Cc1coc(C2CN3CCC2CC3)n1 (configuration not stated)	1.4	0.027	1.72	–
CC(=O)Nc1noc(C2CN3CCC2CC3)n1 (configuration not stated)	23	0.12	–	–
Cc1coc(C2CN3CCC2CC3)c1 (configuration not stated)	1.4	0.057	1.18	–
Clc1noc(C2CN3CCC2CC3)n1 (configuration not stated)	0.19	0.00048	2.6	–
c1ccc(Cc2noc(C3CN4CCC3CC4)n2)cc1 (configuration not stated)	0.07	0.021	–	–
CN(C)c1noc(C2CN3CCC2CC3)n1 (configuration not stated)	0.2	0.021	–	–
OC(c1ccccc1)(c1ccccc1)c1noc(C2CN3CCC2CC3)n1 (configuration not stated)	0.00012	6.7e-05	–	–
COc1noc(C2CN3CCC2CC3)n1 (configuration not stated)	0.52	0.014	–	–
Cc1nc(C2CN3CCC2CC3)no1 (configuration not stated)	2.9	0.054	1.73	–
Cc1cnc(C2CN3CCC2CC3)o1 (configuration not stated)	0.73	0.04	–	–
CCc1noc(C2CN3CCC2CC3)n1 (configuration not stated)	0.096	0.0056	–	–
Cc1noc(C2CN3CCC2CC3)n1 (configuration not stated)	–	–	2.69	0.0009
C[N+]12CCC(CC1)C(c1nc(N)no1)C2 (configuration not stated)	6.6	0.079	–	–
NC(=O)c1noc(C2CN3CCC2CC3)n1 (configuration not stated)	39	1.7	–	–
Cc1cc(C2CN3CCC2CC3)on1 (configuration not stated)	1.4	0.036	1.59	–
Cc1noc(C2=CCCN(C)C2)n1	1.8	0.0046	–	–
Brc1noc(C2CN3CCC2CC3)n1 (configuration not stated)	0.19	0.0011	–	–
